Assay results published in article PMC11211886 (Frontiers in Pharmacology, 2024).
“And” between values parts separate entries of the source, which are not always exact repeats. Equal values may be shown once.

Key:
OAT3 = molecular target: T1, OAT3 (Homo sapiens, UniProt Q8TCC7); assay: OAT3 inhibition, estrone 3-sulfate uptake in transfected HEK293 cells
T1 sequence (Q8TCC7 1-542): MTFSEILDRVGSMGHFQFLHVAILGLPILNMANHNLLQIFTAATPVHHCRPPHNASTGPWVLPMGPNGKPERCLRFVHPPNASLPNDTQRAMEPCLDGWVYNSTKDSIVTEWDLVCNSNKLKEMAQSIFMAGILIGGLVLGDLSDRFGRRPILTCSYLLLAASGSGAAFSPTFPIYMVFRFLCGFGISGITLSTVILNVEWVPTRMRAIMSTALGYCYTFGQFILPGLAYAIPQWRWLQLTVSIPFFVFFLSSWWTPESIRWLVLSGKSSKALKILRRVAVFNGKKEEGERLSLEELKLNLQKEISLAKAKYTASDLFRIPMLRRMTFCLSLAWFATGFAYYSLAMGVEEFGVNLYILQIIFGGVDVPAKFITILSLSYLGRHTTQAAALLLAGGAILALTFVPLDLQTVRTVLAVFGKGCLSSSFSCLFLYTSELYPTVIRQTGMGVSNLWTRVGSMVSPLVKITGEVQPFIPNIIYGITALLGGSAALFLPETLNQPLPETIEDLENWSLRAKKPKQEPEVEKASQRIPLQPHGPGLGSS
Description: (§1) The pre-incubation solutions were removed, and incubation solutions containing the inhibitors and probe substrates (or transport buffer containing an equal volume of vehicle control and probe substrates) were added and incubated at 37°C for 2 min (5 min for OATP1B3). The probe substrate for OAT1 was 4-aminohippuric acid (10 μM), for OAT3 was estrone 3-sulfate (10 μM), for OCT2 was metformin (100 μM), for OATP1B1 was β-estradiol 17-(β-D-glucuronide) (5 μM), for OATP1B3 was β-estradiol 17-(β-D-glucuronide) (10 μM), and for MATE1 and MATE2-K was tetraethylammonium (10 μM). After incubation, cells were washed three times with ice-cold transport buffer (25 mM HEPES, pH 7.4, pH 8.0 for overexpressing MATE1 and MATE2-K HEK293 cells) and lysed in distilled water. The concentrations of probe substrates were determined by LC-MS/MS, and a BCA Kit (Solarbio ®Life Sciences, Beijing, China) was used to determine the protein content in the cell lysate.
(§2) where C is the concentration of the drug in the cell lysate (nM), P is the protein concentration of the cell lysate (mg/mL), and T is the incubation time (minute). Uptake ratetest compound is the uptake rate of the substrate in the presence of the test compound. Uptake ratevehicle control is the uptake rate of the substrate in the presence of the vehicle control. Uptake ratepassive is the uptake rate of the substrate in the presence of the positive inhibitor at the top test concentration.

[1] = Excretion/mass balance of [14C] amdizalisib in BDI and BDC rats; type: in vivo, SD rat; conditions: for Cumulative recovery of radioactivity, Bile / Cumulative recovery of radioactivity, Cage washing / Cumulative recovery of radioactivity, Feces / Cumulative recovery of radioactivity, Total recovery / Cumulative recovery of radioactivity, Urine: PO 5 mg/100 μCi/kg; for unchanged drug recovered in bile / unchanged drug recovered in feces / unchanged drug recovered in urine: % of administered dose
Description: Rats were divided into seven groups according to the sampling time points, with six rats (male: female = 1: 1) in each group, except that Group 1 h used three male rats and Group 2 h and Group 72 h used three female rats, respectively. […] Plasma and tissue samples were collected at 0.5, 1, 6, 24, and 48 h after dosing for male rats and at 0.5, 2, 6, 24, 48, and 72 h after dosing for female rats. […] After blood collection, the rats were sacrificed, and 18 tissues, namely, brain, breast, skin, fat, testis, ovary, bladder, pancreas, skeletal muscle, heart, lung, kidney, liver, stomach, small intestine, colon, spleen, and spinal cord, were removed from the rats at designated time points. These tissues were washed with saline and dried with filter paper. Aliquots of tissues were accurately weighed and then homogenized in 50% (v/v) methanol/water (10 mL/1 g tissue). […] Twelve rats (207–277 g) were divided into the bile-duct cannulation (BDC) group and the bile-duct intact (BDI) group, with six rats (male: female = 1:1) in each group. […] Urine and feces were collected at pre-dose (0) and 24 h through 168 h post-dose (the first 24 h interval split into 0–8 and 8–24 h for urine) for BDI rats. For BDC rats, urine and feces were collected at pre-dose (0) and 72 h post-dose (the first 24 h interval split into 0–8 and 8–24 h for urine), and bile was collected at pre-dose (0), 0–4, 4–8, 8–24, 24–48, and 48–72 h post-dose. Cage-washing fluids were collected at 24 h intervals until the last sampling time point for both groups. Another BDI rat was orally administered a blank vehicle (0.5% CMC-Na, 0.5 g/100 mL), and urine and feces were collected 24 h post-dose. The weight of the collected samples was recorded. Samples were stored in a −20°C freezer until analysis.
For the determination of drug-derived radioactivity in the excretion study in SD rats, urine (0.1 g), bile (0.025 g), and cage wash samples (1 g) were mixed well with scintillation solution (5 mL for urine and cage wash samples; 10 mL for bile samples) and directly analyzed by a liquid scintillation counter (LSC, Perkin Elmer, Waltham, MA, United States). An appropriate amount of isopropanol: water (1:1, v/v) was added to the feces samples and thoroughly homogenized. Pooled fecal homogenate (0.3 g) was combusted in a Sample Oxidizer 501 (RJ Harvey Instrument, Tappan, NY, USA), and the generated ^14CO2 was trapped in a 15 mL scintillation solution and further analyzed for radioactivity by LSC using a Tri-Carb 3110 TR counter (Perkin Elmer, Waltham, MA, United States). The radioactive concentrations of urine, bile, feces, and cage washings were calculated with the counted disintegration per minute (DPM). The percentage of administered dose recovered (% dose recovered) was calculated using the following equation: % dose recovered=Total radioactivity DPM in sample/ radioactivity DPM in dosing formulation×100.

MATE2-K = MATE2-K (Homo sapiens, UniProt Q86VL8); assay: MATE2-K inhibition, tetraethylammonium uptake in transfected HEK293 cells
Description: as §1, §2

MATE1 = molecular target: T2, MATE1 (Homo sapiens, UniProt Q96FL8); assay: MATE1 inhibition, tetraethylammonium uptake in transfected HEK293 cells
T2 sequence (Q96FL8 1-570): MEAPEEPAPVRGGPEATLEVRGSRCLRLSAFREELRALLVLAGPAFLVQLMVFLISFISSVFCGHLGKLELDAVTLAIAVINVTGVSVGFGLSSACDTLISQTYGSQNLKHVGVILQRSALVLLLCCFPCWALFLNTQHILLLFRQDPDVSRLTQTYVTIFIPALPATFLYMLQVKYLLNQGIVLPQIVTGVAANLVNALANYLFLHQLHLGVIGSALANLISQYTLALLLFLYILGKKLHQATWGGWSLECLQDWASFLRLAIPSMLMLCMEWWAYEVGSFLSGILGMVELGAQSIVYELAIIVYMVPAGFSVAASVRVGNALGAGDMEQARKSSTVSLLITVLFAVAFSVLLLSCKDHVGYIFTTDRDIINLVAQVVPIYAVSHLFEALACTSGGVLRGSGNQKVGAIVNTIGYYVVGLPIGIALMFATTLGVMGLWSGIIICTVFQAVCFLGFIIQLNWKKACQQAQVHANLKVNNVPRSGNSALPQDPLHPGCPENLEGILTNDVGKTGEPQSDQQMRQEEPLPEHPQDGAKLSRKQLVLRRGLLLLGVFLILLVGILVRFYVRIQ
Description: as §1, §2

[2] = BDC rat, 0–72 h, female (n = 3)
[3] = BDC rat, 0–72 h, male and female (n = 6)
[4] = BDI rat, 0–168 h, female (n = 3)
[5] = BDI rat, 0–168 h, male and female (n = 6)

MATE2-K, sequence (Q86VL8 1-566 isoform Q86VL8-3): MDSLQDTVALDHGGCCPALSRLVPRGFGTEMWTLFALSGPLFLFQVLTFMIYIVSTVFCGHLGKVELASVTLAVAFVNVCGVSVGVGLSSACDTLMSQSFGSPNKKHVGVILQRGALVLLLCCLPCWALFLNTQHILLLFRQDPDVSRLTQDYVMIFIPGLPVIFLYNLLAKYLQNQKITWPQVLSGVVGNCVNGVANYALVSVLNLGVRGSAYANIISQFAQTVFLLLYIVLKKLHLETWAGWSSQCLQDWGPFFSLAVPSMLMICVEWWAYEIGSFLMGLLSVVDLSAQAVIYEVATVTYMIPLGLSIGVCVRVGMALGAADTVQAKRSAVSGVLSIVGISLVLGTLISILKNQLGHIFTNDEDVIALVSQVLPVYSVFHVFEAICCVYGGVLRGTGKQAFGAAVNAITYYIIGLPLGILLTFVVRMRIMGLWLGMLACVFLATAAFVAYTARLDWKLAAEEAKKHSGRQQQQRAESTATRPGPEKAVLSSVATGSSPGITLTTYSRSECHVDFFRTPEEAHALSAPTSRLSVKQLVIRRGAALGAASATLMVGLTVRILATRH

CCCN(CCC)S(=O)(=O)c1ccc(C(=O)O)cc1 [Probenecid, reference compound]
Percentage transported (OAT3; OAT3, compound 100 μM): 0.00% | Uptake rate (OAT3; OAT3, compound 100 μM): 19.5±2.26 pmol/mg protein/min | inhibition at 2 min, 100 µM (OAT3; human, pH 7.4): 100%

[^14C] amdizalisib
Cumulative recovery of radioactivity, Bile [1, 2]: 49.81 ± 2.07% | Cumulative recovery of radioactivity, Cage washing [1, 2]: 2.24 ± 1.90% | Cumulative recovery of radioactivity, Feces [1, 2]: 19.81 ± 4.98% | Cumulative recovery of radioactivity, Total recovery [1, 2]: 90.31 ± 0.91% | Cumulative recovery of radioactivity, Urine [1, 2]: 18.45 ± 4.01% | Cumulative recovery of radioactivity, Bile ([1]; BDC rat, 0–72 h, male (n = 3)): 58.17 ± 4.68% | Cumulative recovery of radioactivity, Cage washing ([1]; BDC rat, 0–72 h, male (n = 3)): 0.89 ± 0.37% | Cumulative recovery of radioactivity, Feces ([1]; BDC rat, 0–72 h, male (n = 3)): 8.98 ± 2.64% | Cumulative recovery of radioactivity, Total recovery ([1]; BDC rat, 0–72 h, male (n = 3)): 91.99 ± 1.88% | Cumulative recovery of radioactivity, Urine ([1]; BDC rat, 0–72 h, male (n = 3)): 23.96 ± 8.70% | Cumulative recovery of radioactivity, Bile [1, 3]: 53.99 ± 5.61% | Cumulative recovery of radioactivity, Cage washing [1, 3]: 1.57 ± 1.43% | Cumulative recovery of radioactivity, Feces [1, 3]: 14.40 ± 6.92% | Cumulative recovery of radioactivity, Total recovery [1, 3]: 91.15% and 91.15 ± 1.61% | Cumulative recovery of radioactivity, Urine [1, 3]: 21.20 ± 6.77% | fraction of the oral dose absorbed (bile + urine radioactivity) ([1]; BDC rats, 0–72 h, PO 5 mg/kg): at least 75.19% | Cumulative recovery of radioactivity, Cage washing [1, 4]: 4.72 ± 2.41% | Cumulative recovery of radioactivity, Feces [1, 4]: 71.15 ± 0.22% | Cumulative recovery of radioactivity, Total recovery [1, 4]: 91.59 ± 0.97% | Cumulative recovery of radioactivity, Urine [1, 4]: 15.72 ± 2.62% | Cumulative recovery of radioactivity, Cage washing ([1]; BDI rat, 0–168 h, male (n = 3)): 2.84 ± 0.17% | Cumulative recovery of radioactivity, Feces ([1]; BDI rat, 0–168 h, male (n = 3)): 63.14 ± 3.98% | Cumulative recovery of radioactivity, Total recovery ([1]; BDI rat, 0–168 h, male (n = 3)): 90.69 ± 1.16% | Cumulative recovery of radioactivity, Urine ([1]; BDI rat, 0–168 h, male (n = 3)): 24.71 ± 4.46% | Cumulative recovery of radioactivity, Cage washing [1, 5]: 3.78 ± 1.84% | Cumulative recovery of radioactivity, Feces [1, 5]: 67.15 ± 5.06% | Cumulative recovery of radioactivity, Total recovery [1, 5]: 91.14% and 91.14 ± 1.07% | Cumulative recovery of radioactivity, Urine [1, 5]: 20.21 ± 5.91% | total radioactivity recovered ([1]; BDI rats, within 48 h post-dose): over 80% | unchanged drug recovered in bile ([1]; female rats): 4.70% | unchanged drug recovered in feces ([1]; female rats): 29.80% | unchanged drug recovered in urine ([1]; female rats): 0.03% | unchanged drug recovered in bile ([1]; male rats): 2.69% | unchanged drug recovered in feces ([1]; male rats): 23.20% | unchanged drug recovered in urine ([1]; male rats): < 0.01%

CCc1nc(N)nc(N)c1-c1ccc(Cl)cc1 [Pyrimethamine, reference compound]
IC50 (MATE2-K): 13.6 nM | Percentage transported (MATE2-K; MATE2-K, compound 1 μM): 0.00% | Uptake rate (MATE2-K; MATE2-K, compound 1 μM): 7.55±1.58 pmol/mg protein/min | inhibition at 2 min, 1 µM (MATE2-K; human, pH 8): 100% | IC50 (MATE1): 12.5 nM | Percentage transported (MATE1; MATE1, compound 1 μM): 0.00% | Uptake rate (MATE1; MATE1, compound 1 μM): 12.5±2.43 pmol/mg protein/min | inhibition at 2 min, 1 µM (MATE1; human, pH 8): 100%
